Test results reported in patent US20090142753A1, “Compositions and methods for detecting compounds to treat a neurological disorder” (Caritas St. Elizeth Medical Center of Boston, Inc., priority 2005, published 2009).
One block for each compound: values may come before it.

How the values were obtained:
human DJ-1 promoter [1] = experiment: DJ-1 promoter luciferase reporter assay in SH-SY5Y cells stably expressing −1000DJ-Luc; format: cell-based; conditions: 24 hours; for DJ-1 promoter-driven luciferase activity normalized to β-galactosidase activity: SH-SY5Y cells stably expressing −1000DJ-Luc, increasing doses; for Luciferase expression directed by the human DJ-1 promoter, fold change relative to untreated: SH-SY5Y −1000DJ-Luc vs 0DJ-Luc, normalized to total protein content (FIG. 6)
From the text: (§1) To develop a cell-based assay system where one can identify agents that transcriptionally activate DJ-1, a plasmid vector (−1000DJ-Luc) was made that expressed a luciferase reporter gene directed by the human DJ-1 promoter containing 1000 base pairs upstream and 65 base pairs downstream sequences (−1000 to +65) of the transcription initiation site (FIG. 1). A19 base pair sequence containing +46 to +65 of the DJ-1 gene was fused to the luciferase gene to generate the control plasmid (0DJLuc). A neomycin resistance gene was inserted into the vectors as a selection marker. Next, human dopaminergic SH-SY5Y neuroblastoma cells were transfected with either −1000DJLuc or 0DJLuc selected for stably transfected clones. A plasmid encoding β-galactosidase gene was co-transfected to serve as an internal control for luciferase expression.
To confirm the stable expression of the reporter genes and to evaluate these cells as devices for drug discovery, stably transfected SH-SY5Y cells were treated with increasing doses of H2O2. This agent has been reported to upregulate DJ-1. See for example Reference 21. Twenty-four hours after treatment, cells were harvested to analyze luciferase and β-galactosidase activities. Toxicity induced by the higher dose H2O2 was corrected by reduced β-galactosidase activities. […] SH-SY5Y cells stably expressing −1000DJ-Luc and a plasmid encoding CMV-β-galactosidase were treated with the indicated amount of H2O2 for 24 hours. Luciferase and β-galactosidase activities were then determined. Because cellular toxicity increases with increasing H2O2 dosages, luciferase activity was normalized to β-galactosidase activity, with the value of untreated sample designated as 100. The values shown represent the average of 2 experiments carried out in triplicate. (P<0.05 by Anova). The Luciferase activity in control cell lines expressing 0DJ-Luc was not affected by H2O2. To further validate the cells as tools for compound screening, a rational approach to selecting candidate compounds that can transactivate DJ-1 gene based on the analysis of the human DJ-1 promoter was taken.
SH-SY5Y cells stably expressing −1000DJ-Luc were treated with increasing doses of TSA (FIG. 3A) or sodium butyrate (FIG. 3B) for 24 hours. Results were analyzed as described in FIG. 2. DJ-1 promoter-driven luciferase activity was then assayed.
A. Plasmids and Chemicals. DJ-1 promoter sequences from −1000 to +65 relative to the transcriptional initiation site was amplified from pDJ-1(1)luc by PCR with Xho I and Hind III sites using the following primers: DJ-1 F, 5′ […] (SEQ ID NO:); DJ-1 R, 5′ […] (SEQ ID NO:). The PCR product was then inserted into pGL3basic vector (Promega), between Xho I and Hind III sites to generate 1000DJ-Luc vector. For 0DJ-Luc, the sequences from +46 to +65 relative to the transcriptional initiation site were inserted between XhoI and Hind III sites instead. To facilitate selection, a neomycin resistant gene directed by the SV40 promoter with BamHI and Xho I linker was inserted between the BamHI and SalI sites of pGL3 basic, with the original SalI site abolished after ligation. pON260 encoding β-galactosidase gene was described previously. H2O2, Trichostatin A (TSA), and sodium butyrate were obtained from Sigma.
B. Cells and Transfection. The human neuroblastoma cell line SH-SY5Y was plated in 6 well dish at 70% confluency and co-transfected with 150 ng of pON260 and 25 fmol of −1000DJ-Luc or 0DJ-Luc per well with Transfectin reagent (Bio-Rad). 24 hours after transfection, cells were re-plated in 10 cm dishes and cultured in medium with 800 μg/ml of Geneticin (G418, Invitrogen). Three days later, cells were grown in medium containing 400 μg/ml of Geneticin. Surviving clones were cultured, and expanded, and subjected to analysis.
C. Luciferase and β-galactosidase Assays. Cells were treated with the indicated doses of H2O2, TSA or sodium butyrate for 24 hours before being lysed in reporter lysis buffer (Promega). […]

[2] = system: 0DJ-Luc control plasmid (+46 to +65 of the DJ-1 gene); experiment: Luciferase activity in control cell lines expressing 0DJ-Luc; format: cell-based, human; conditions: SH-SY5Y 0DJ-Luc cells, 24 hours
From the text: as §1
To confirm the stable expression of the reporter genes and to evaluate these cells as devices for drug discovery, stably transfected SH-SY5Y cells were treated with increasing doses of H2O2. This agent has been reported to upregulate DJ-1. See for example Reference 21. Twenty-four hours after treatment, cells were harvested to analyze luciferase and β-galactosidase activities. […] Luciferase and β-galactosidase activities were then determined. […]
C. […] Luciferase and β-galactosidase activities were determined using assay kits following manufacturer's protocol (Promega).

human DJ-1 promoter [3] = experiment: DJ-1 luciferase assay in 96-well high throughput format; format: cell-based; conditions: 1000DJ-Luc SH-SY5Y cells, 96-well format, 5 μM, 24 hours, N=12
Method: FIG. 8 is a graph showing the results of a DJ-1 luciferase assay configured as a high throughput screen. Equal numbers of SH-SY5Y cells stably expressing the 1000DJ-Luc construct were plated in replicate (N=12) with 5 μM pergolide, bromocriptine or SAHA for 24 hours and then assayed for luciferase activity. The assay produced a Z′ value of 0.790 using SAHA as the positive and bromocriptine as the negative control.
The assay described above was carried out in a 96-well format. Twelve replicate samples of 1000DJ-Luc cells were each treated with pergolide or bromocriptine, which served as negative controls, or with SAHA, a compound known to increase DJ-1 expression. 5 μM of each compound was added to the cells in a 30 μl volume. Cells were lysed in 100 μl/well of passive lysis buffer, and 20 μl aliquots of the cell lysates were then used for a luciferase assay. Bromocriptine and pergolide are dopamine receptor agonists used for the treatment of motor symptoms in Parkinson's disease. […] In fact, levels of luciferase activity observed with these compounds were very similar to levels present in untreated control cells. […] A Z′ value was calculated using bromocriptine as the negative control. […] See “A Simple Statistical Parameter for Use in Evaluation and Validation of High Throughput Screening Assays” Zhang J H, Chung T D, Oldenburg K R, J Biomol Screen. 1999; 4(2):67-73.

DJ-1 protein [4] = experiment: Western blot of endogenous DJ-1 protein in SH-SY5Y cells; format: cell-based, human; conditions: for Total endogenous DJ-1 protein levels: SH-SY5Y cells stably expressing −1000DJ-Luc, 24 hours, Western blot (FIG. 4); for DJ-1 protein levels: SH-SY5Y cells, TSA 0, 50, 100 ng/ml, sodium butyrate 0, 2.5, 5, 10 mM (FIG. 6C)
Method: SHSY5Y cells stably expressing −1000DJ-Luc were treated with TSA or sodium butyrate for 24 hours. Total proteins were then extracted and analyzed by SDS-PAGE. After transfer, the membrane was first probed with a mouse monoclonal anti-DJ-1 antibody (1:1000) to reveal DJ-1 expression (Top panel). The membrane was then stripped and re-probed with a goat polyclonal anti-actin (1:1000). Therefore, and without wishing to be bound to theory, it is believed that by activating an anti-oxidative and neuroprotective protein DJ-1, HDAC inhibitors may prevent neuronal cell death in Parkinson disease or other neurodegenerative diseases.
SHSY5Y cells stably expressing −1000DJ-Luc were treated with TSA or sodium butyrate for 24 hours. Total proteins were extracted and analyzed by SDS-PAGE. After transfer, the membrane was first probed with a mouse monoclonal anti-DJ-1 antibody (1:1000) to reveal DJ-1 expression (Top panel). The membrane was then striped and re-probed with a goat polyclonal anti-actin (1:1000).
(§2) SH-SY5Y cells (FIG. 6C), human primary neuronal cultures containing cortical neurons and glia (FIG. 6D), or mouse embryonic stem cells (FIG. 6D) were treated with increasing doses of TSA (0, 50, or 100 ng/ml) and sodium butyrate (0, 2.5, 5, or 10 mM). The cells were then lysed. The protein concentration of each sample was determined using a Protein DC assay (Bio-Rad). Equal amount of proteins (30-40 μg) were resolved by 4-20% Tris-glycine SDS-PAGE in each experiment. Proteins were transferred onto nitrocellulose membranes, and probed with antibodies against DJ-1 (Stressgen) or β-actin (Santa Cruz). DJ-1 protein was then visualized using chemiluminescent detection, ECL WESTERN BLOTTING DETECTION SYSTEM (Amersham, Piscataway, N.J.), according to the manufacturer's instructions.
Human SH-SY5Y cells, a primary neuronal culture containing dopaminergic neurons and glia, or mouse embryonic stem cells were treated with selected HDAC inhibitors for 24 hours. Cells were then lysed in RIPA-DOC buffer (50 mM Tris, pH 7.2; 150 mM NaCl; 1% Triton-X100, 1% deoxycholate and 0.1% SDS) with 1× fresh protease inhibitor cocktail. For analysis of DJ-1 protein levels in mouse brains, C57BL6 mice were injected intraperitoneally with sodium butyrate (1200 mg/kg) or vehicle (PBS) daily for 14 days. Mice were euthanized and the cortical and midbrain tissues were collected, and snap frozen in liquid nitrogen. Tissues were disrupted in RIPA-DOC buffer with 1× protease inhibitor using Dounce homogenizers. Protein concentration of each sample was determined using Protein DC assay (Bio-Rad). Equal amounts of proteins (30-40 μg) were resolved by 4-20% Tris-glycine SDS-PAGE in each experiment. […]

DJ-1 protein [5] = experiment: Western blot of DJ-1 protein in human primary neuronal cultures; format: cell-based; conditions: human primary neuronal cultures containing cortical neurons and glia, increasing doses (FIG. 6D)
Method: as §2
(§3) Human SH-SY5Y cells, a primary neuronal culture containing dopaminergic neurons and glia, or mouse embryonic stem cells were treated with selected HDAC inhibitors for 24 hours. Cells were then lysed in RIPA-DOC buffer (50 mM Tris, pH 7.2; 150 mM NaCl; 1% Triton-X100, 1% deoxycholate and 0.1% SDS) with 1× fresh protease inhibitor cocktail. For analysis of DJ-1 protein levels in mouse brains, C57BL6 mice were injected intraperitoneally with sodium butyrate (1200 mg/kg) or vehicle (PBS) daily for 14 days. […] Protein concentration of each sample was determined using Protein DC assay (Bio-Rad). […]

DJ-1 protein [6] = experiment: Western blot of DJ-1 protein in mouse embryonic stem cells; format: cell-based; conditions: increasing doses (FIG. 6D)
Method: as §2, §3

DJ-1 mRNA = DJ-1 mRNA by quantitative real-time PCR in SH-SY5Y cells; format: cell-based, human; conditions: 5 mM, 1-12 hours after treatment
Method: SH-SY5Y cells were treated with 5 mM of sodium butyrate. Cells were then harvested for mRNA one, two, four, eight, and twelve hours after treatment. DJ-1 mRNA levels were quantitated using real-time PCR. DJ-1 mRNA levels were normalized to internal control β-actin mRNA levels.
Total RNA was extracted from the cells treated with sodium butyrate at various time points using Trizol reagent (Invitrogen). The total RNA was then purified with the RNAeasy kit (Qiagen). The quality of the RNA was confirmed using agarose (1%) gel electrophoresis. RNA (1 ng) from each sample was then amplified using Roche LightCycler and Qiagen QuantiTect™ SYBR Green RT-PCR kit according to the manufacturer's instructions. This protocol included: reverse transcription at 50° for 20 minutes, initial activation of Hotstar Taq polymerase at 95° C. for 15 minutes, then 40 cycles of 3-step cycling, including denaturation at 94° C. for 15 seconds; annealing at 58° C. for 20 seconds; extension at 72° C. for 20 sec). A fluorescence detection step was carried out at the end of each cycle. Melting curve analysis (0.1° C. per sec ramping rate, 60-95° C.) was performed with a continuous fluorescence measurement following the 40th cycle. β-actin mRNA was amplified in parallel as an internal control.

DJ-1 protein [7] = experiment: DJ-1 protein levels in mouse brain in vivo (immunoblot); conditions: C57BL6 mice, 1200 mg/kg intraperitoneally daily for fourteen days, cortical and midbrain tissues
Method: For analysis of DJ-1 protein levels in mouse brains, C57BL6 mice were injected intraperitoneally with vehicle (PBS) or sodium butyrate (1200 mg/kg) daily for fourteen days. Mice were euthanized and the cortical and midbrain tissues were collected, and snap frozen in liquid nitrogen. Tissues were disrupted in RIPA-DOC buffer with 1× protease inhibitor using a Dounce homogenizer. The protein concentration of each sample was determined using a Protein DC assay (Bio-Rad). Equal amounts of proteins (30-40 μg) were resolved by 4-20% Tris-glycine SDS-PAGE in each experiment. Proteins were transferred onto nitrocellulose membranes, and probed with antibodies against DJ-1 (Stressgen) or β-actin (Santa Cruz).
as §3

Compound: OO [H2O2]
DJ-1 promoter-driven luciferase activity normalized to β-galactosidase activity (human DJ-1 promoter [1]): activated the human DJ-1 promoter in a dose dependent manner
Luciferase activity in control cell lines expressing 0DJ-Luc [2]: not affected

Compound: O=C(CCCCCCC(=O)Nc1ccccc1)NO [SAHA, suberoylanilide hydroxamic acid]
Luciferase expression directed by the human DJ-1 promoter, fold change relative to untreated (human DJ-1 promoter [1]): specifically activate luciferase expression
Luciferase activity (human DJ-1 promoter [3]): substantial levels of luciferase activity

Compound: CC(/C=C/C(=O)NO)=C\[C@@H](C)C(=O)c1ccc(N(C)C)cc1 [TSA, Trichostatin A]
DJ-1 promoter-driven luciferase activity normalized to β-galactosidase activity (human DJ-1 promoter [1]): significantly activated the DJ-1 promoter
Luciferase expression directed by the human DJ-1 promoter, fold change relative to untreated (human DJ-1 promoter [1]): specifically activate luciferase expression
Total endogenous DJ-1 protein levels (DJ-1 protein [4]): increased markedly
DJ-1 protein levels (DJ-1 protein [4]): increased DJ-1 protein levels in a dose dependent fashion
DJ-1 protein levels (DJ-1 protein [5]): increased DJ-1 protein levels in a dose dependent fashion
DJ-1 protein levels (DJ-1 protein [6]): increased DJ-1 protein levels in a dose dependent fashion

Luciferase activity (human DJ-1 promoter [3]): little luciferase activity
Compound: CCCN1C[C@H](CSC)C[C@@H]2c3cccc4[nH]cc(c34)C[C@H]21 [pergolide]

Compound: CCCC(=O)[O-].[Na+] [sodium butyrate]
DJ-1 promoter-driven luciferase activity normalized to β-galactosidase activity (human DJ-1 promoter [1]): significantly activated the DJ-1 promoter
Luciferase expression directed by the human DJ-1 promoter, fold change relative to untreated (human DJ-1 promoter [1]): specifically activate luciferase expression
Total endogenous DJ-1 protein levels (DJ-1 protein [4]): increased markedly
DJ-1 protein levels (DJ-1 protein [4]): increased DJ-1 protein levels in a dose dependent fashion
DJ-1 protein levels (DJ-1 protein [5]): increased DJ-1 protein levels in a dose dependent fashion
DJ-1 protein levels (DJ-1 protein [6]): increased DJ-1 protein levels in a dose dependent fashion
DJ-1 mRNA levels normalized to β-actin mRNA (DJ-1 mRNA): transient increase in DJ-1 mRNA levels
DJ-1 protein levels in mouse brain (DJ-1 protein [7]): increased DJ-1 protein levels in mouse brain in vivo
